Assay results reported in patent US20240408071A1, “NOVEL COMBINATION OF SEROTONIN RECEPTOR (5-HTR2B) ANTAGONIST AND AN IMMUNOMODULATOR AND CHEMOTHERAPEUTIC DRUGS FOR INHIBITION OF CANCER” (NATIONAL CENTRE FOR CELL SCIENCE, priority 2021, published 2024).
Entries after “also recorded” stand apart in the source; their conditions may differ.

Key:
[1] = system: MC38 colon cancer cells; experiment: MC38 colon tumor growth (tumor volume) in C57BL/6 mice; assay type: in vivo
Protocol: Tumor volumes were measured and plotted. (B) MC38 colon cancer cells were injected subcutaneously into the right flank of C57BL/6 mice. After seven days when tumors became palpable, one group was treated with 5-HTR7 antagonist SB-269970 (n=6 mice; 3 mg/kg/day) or left untreated (n=6 mice). Tumor volume was measured and plotted. (C) After seven days of the setting of tumor growth, one group was treated with a serotonin transporter blocker (SSRI) sertraline hydrochloride (n=6 mice; 15 mg/kg/week) or left untreated (n=6 mice). Tumor volume was measured and plotted. (D) C57BL/6 mice were given subcutaneously injected MC38 cells. After seven days of tumor growth, one group of mice was treated with different doses of 5-HTR2B antagonist SB-215505 (n=6). Tumor volume was measured and plotted. (E) C57BL/6 mice were given subcutaneously injected MC38 cells. After seven days of the tumor growth, one group of mice was treated with different doses of 5-HTR2B antagonist SB-215505 (n=6), one group treated with 5-HTR2B agonist BW-723C86 (n=6; 4 mg/kg/day). Tumor volume was measured and plotted. (F) MC38 cells were subcutaneously injected into C57BL/6 mice. After seven days when the tumor became palpable in mice, one group of mice was treated with FDA-approved 5-HTR2B antagonist cariprazine (Carispec; Sun pharma) via oral gavage (n=5 mice; dose 5 mg/kg body weight/day) or left untreated (n=5 mice). Tumor growth was measured and plotted. […] All the statistical analysis was performed using Student's ‘t’ test or two-way ANOVA using Sidak's multiple comparison test. *P<0.05; **P<0.01; ***P<0.00; ****P<0.0001 Error bar represents mean±standard error of means (SEM).

[2] = system: PD-L1; experiment: PD-L1 expression on MC38 cells in vitro (flow cytometry, mRNA); assay type: cell-based, mouse; conditions: BW-723C86 50 μM, serotonin 100 μM, RS-127445 50 μM, 72 hours (mRNA 48 hours) (FIG. 13A-E)
Protocol: (§1) FIG. 13 depicts 5-HTR2B signaling promotes PD-L1 expression on the MC38 cell line in vitro: (A-B) MC38 cells are treated with 5-HTR2B agonist (BW-723C86-50 μM), serotonin (100 μM), and 5-HTR2B antagonist (RS-127445-50 μM) for 72 hours, and the PD-L1 expression was checked by flow cytometry and the percentage of PD-L1^+ MC38 cells was plotted. (C-D) MFI of PD-L1 from the above experiment were plotted as histogram overlay (C) or as statistical data points (D). (E) Relative PD-L1 mRNA expression in MC38 cells following BW-723C86 and RS-127445 treatment for 48 hours. Here the values are shown as a fold change as compared to control MC38 cells. (F) Serum PD-L1 level was measured by ELISA of naïve C57BL/6J mice, control MC38 tumor-bearing mice, BW-723C86 (5 mg/kg/day) treated MC38 tumor-bearing mice and RS-127445 (5 mg/kg/day) treated MC38 tumor-bearing mice after 14 days of tumor inoculation. All the statistical analysis was performed using either Student's ‘t’ test or two-way ANOVA using Sidak's multiple comparison test. *P<0.05; **P<0.01; […]; ****P<0.0001 Error bar represents mean±standard error of means (SEM).
(§2) To understand it, investigations were done on whether 5-HTR2B signaling also affects the surface expression of molecules that alters inflammatory and cytotoxic immune cells. Among different molecules, PD-L1 is of particular interest as it is an immune checkpoint ligand that affects cytotoxic T-cell responses toward cancer. […] (FIG. 13F).

[3] = system: PD-L1; experiment: Serum PD-L1 ELISA in MC38 tumor-bearing mice; assay type: in vivo, C57BL/6J mice; conditions: MC38 tumor-bearing mice, 5 mg/kg/day, 14 days after tumor inoculation (FIG. 13F)
Protocol: as §1, with “(F) Serum PD-L1 level was measured by ELISA of naïve C57BL/6J mice, control MC38 tumor-bearing mice, BW-723C86 (5 mg/kg/day) treated MC38 tumor-bearing mice and RS-127445 (5 mg/kg/day) treated MC38 tumor-bearing mice after 14 days of tumor inoculation.” left out
Universal competitive serotonin ELISA kit was purchased from Novus biological (Catalog #NBP2-68127), and ELISA was performed according to the manufacturer's protocol. Mouse PD-L1 DuoSet ELISA kit was procured from the R&D System (Catalog #DY1019-05), and the ELISA was performed according to the manufacturer's guidelines.
as §2

| Compound | MC38 tumor growth ([1]; 4 mg/kg/day from day 7 after inoculation, vs untreated (FIG. 7A)) | effect in controlling tumor growth compared to SB-215505 ([1]; MC38 tumor, equivalent dose) | tumor growth, combination with 5-Fluorouracil ([1]; RS-127445 2 mg/kg/day + 5-Fluorouracil 10 mg/kg/alternate days, MC38 model (FIG. 16B)) | efficacy of combination with Irinotecan ([1]; RS-127445 2 mg/kg/day + Irinotecan 15 mg/kg/day for 5 days, subcutaneous colon cancer model (FIG. 16D)) | efficacy of combination with Oxaliplatin ([1]; RS-127445 2 mg/kg/day + Oxaliplatin 4 mg/kg/day for 5 days, subcutaneous colon cancer model (FIG. 16C)) | efficacy of combination with trifluorothymidine ([1]; RS-127445 2 mg/kg/day + trifluorothymidine 20 mg/kg/day (FIG. 16E)) | expression of PD-L1 in the colon cancer cells [2] | circulating free PD-L1 in the serum [3] | MC38 tumor growth ([1]; 5-HTR2B agonist 4 mg/kg/day (FIG. 7E)) |
| --- | --- | --- | --- | --- | --- | --- | --- | --- | --- |
| CC(C)c1cc(-c2ccc(F)c3ccccc23)nc(N)n1 [RS-127445] | efficiently control the tumor growth; also recorded: potent molecule in reducing the tumor burden | even more potent effect in controlling tumor growth | much better response by reducing tumor growth than any of them alone | significantly enhanced the efficacy of irinotecan or RS-127445 alone | significantly enhanced the efficacy of oxaliplatin or RS-127445 alone | not found any significant alterations in the efficacy | reduced the expression of PD-L1 | diminished | – |
| CC(N)Cc1c[nH]c2ccc(OCc3cccs3)cc12 (centres unmarked) [BW-723C86] | – | – | – | – | – | – | increased the expression of PD-L1 | increased the circulating free PD-L1 in the serum | significantly promotes MC38 tumor growth |
